Data published in publication PMC3914206.

Legend:
Type in all cases: binding
Conditions in all cases: Compound Concentration 10 µM
panel of 442 kinases [1] = target: panel of 442 kinases (Homo sapiens, UniProt P19784)
From the text: (§1) We assessed the selectivity of members of this scaffold using the KINOMEscan methodology across a near comprehensive panel of 442 kinases [[18,27]].

panel of 442 kinases [2] = target: T1, panel of 442 kinases (Homo sapiens, UniProt P51451)
T1 construct: purchased KINOMEscan
T1 sequence (P51451 whole entry): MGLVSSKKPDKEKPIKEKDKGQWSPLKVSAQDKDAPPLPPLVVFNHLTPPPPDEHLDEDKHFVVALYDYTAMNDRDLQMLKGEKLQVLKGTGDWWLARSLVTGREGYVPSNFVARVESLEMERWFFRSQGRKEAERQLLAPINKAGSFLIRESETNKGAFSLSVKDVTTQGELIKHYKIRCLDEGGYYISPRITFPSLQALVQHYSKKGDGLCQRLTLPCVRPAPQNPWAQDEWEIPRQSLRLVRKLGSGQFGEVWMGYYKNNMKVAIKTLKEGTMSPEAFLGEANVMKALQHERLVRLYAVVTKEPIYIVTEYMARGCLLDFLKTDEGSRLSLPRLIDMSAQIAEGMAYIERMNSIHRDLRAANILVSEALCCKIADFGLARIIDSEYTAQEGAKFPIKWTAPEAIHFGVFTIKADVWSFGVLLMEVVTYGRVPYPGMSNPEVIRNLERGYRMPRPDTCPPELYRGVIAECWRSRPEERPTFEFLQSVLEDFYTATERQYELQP
From the text: as §1

panel of 442 kinases [3] = target: T2, panel of 442 kinases (Homo sapiens, UniProt P41743)
T2 construct: purchased KINOMEscan
T2 sequence (P41743 1-596): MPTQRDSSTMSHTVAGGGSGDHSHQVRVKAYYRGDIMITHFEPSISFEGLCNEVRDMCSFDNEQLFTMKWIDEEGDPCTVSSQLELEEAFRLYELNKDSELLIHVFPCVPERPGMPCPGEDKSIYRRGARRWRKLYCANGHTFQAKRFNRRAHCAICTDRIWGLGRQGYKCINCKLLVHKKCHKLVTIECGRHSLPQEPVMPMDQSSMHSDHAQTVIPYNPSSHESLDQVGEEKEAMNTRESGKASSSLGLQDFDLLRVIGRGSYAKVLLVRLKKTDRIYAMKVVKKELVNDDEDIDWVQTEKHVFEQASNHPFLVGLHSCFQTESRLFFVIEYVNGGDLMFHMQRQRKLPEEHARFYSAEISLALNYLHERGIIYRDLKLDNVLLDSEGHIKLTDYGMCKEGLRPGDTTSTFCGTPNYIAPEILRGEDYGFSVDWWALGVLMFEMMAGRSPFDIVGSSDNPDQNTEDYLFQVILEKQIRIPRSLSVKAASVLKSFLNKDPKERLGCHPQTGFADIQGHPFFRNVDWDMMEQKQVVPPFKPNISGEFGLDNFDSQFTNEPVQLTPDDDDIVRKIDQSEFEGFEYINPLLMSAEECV
From the text: as §1

Chain of panel of 442 kinases (Homo sapiens, UniProt P19784) (P19784 whole entry): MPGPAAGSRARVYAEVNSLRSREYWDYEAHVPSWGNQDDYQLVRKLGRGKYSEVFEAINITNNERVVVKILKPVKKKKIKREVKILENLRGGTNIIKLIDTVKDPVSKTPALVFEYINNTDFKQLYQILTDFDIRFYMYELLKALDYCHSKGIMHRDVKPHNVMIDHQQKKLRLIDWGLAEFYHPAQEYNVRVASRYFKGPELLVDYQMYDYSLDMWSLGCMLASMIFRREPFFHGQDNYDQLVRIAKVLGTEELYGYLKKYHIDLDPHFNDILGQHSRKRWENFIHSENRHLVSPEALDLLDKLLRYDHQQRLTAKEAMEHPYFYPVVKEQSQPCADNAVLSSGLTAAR

SMILES | KINOMEscan: CSNK2A2 (panel of 442 kinases [1]) | KINOMEscan: BLK (panel of 442 kinases [2]) | KINOMEscan: PRKCI (panel of 442 kinases [3])
CCOc1cc(C(=O)N2CCC(N3CCN(C)CC3)CC2)ccc1Nc1ncc2c(n1)N(C1CCCC1)c1ccccc1C(=O)N2C [Compound 26] | 97 | 100 | 95
COc1cc(C(=O)N2CCC(N3CCN(C)CC3)CC2)ccc1Nc1ncc2c(n1)N(C)c1ccccc1C(=O)N2C [15 (LRRK2-IN-1)] | 93 | 97 | 100
COc1cc(C(=O)N2CCC(N3CCN(C)CC3)CC2)ccc1Nc1ncc2c(n1)N(C1CCCC1)c1ccccc1C(=O)N2C [Compound 25, 11-cyclopentyl-2-((2-methoxy-4-(4-(4-methylpiperazin-1-yl)piperidine-1-carbonyl)phenyl)amino)-5-methyl-5H-benzo[e]pyrimido[5,4-b][1,4]diazepin-6(11H)-one] | 100 | 100 | 100
